What was measured:
Lung [1] = assay: Biodistribution in Rattus norvegicus Wistar albino (rat) lung at 74 MBq/umol, iv administered 60 min post dose of non radiolabelled compound measured at 150 min; format: ADME, organism-based; conditions: in vivo, 2.5 h
[2] = Biodistribution in Rattus norvegicus Wistar albino (rat) lung at 74 MBq/umol, iv administered 60 min post dose of non radiolabelled compound measured at 60 min; format: ADME, organism-based; conditions: read-out: Drug uptake
[3] = Biodistribution in Rattus norvegicus Wistar albino (rat) lung at 74 MBq/umol, iv administered 60 min post dose of non radiolabelled compound measured at 30 min; format: ADME, organism-based; conditions: read-out: Drug uptake
[4] = Ratio of drug uptake in Rattus norvegicus Wistar albino (rat) lung to blood at 74 MBq/umol, iv measured at 30 min; format: ADME, organism-based
Kidney [5] = assay: Biodistribution in Rattus norvegicus Wistar albino (rat) kidney at 74 MBq/umol, iv after 60 min; format: ADME, organism-based; conditions: in vivo, 1 h
Stomach [6] = assay: Biodistribution in Rattus norvegicus Wistar albino (rat) stomach at 74 MBq/umol, iv after 60 min; format: ADME, organism-based; conditions: in vivo, 1 h
Small intestine [7] = assay: Biodistribution in Rattus norvegicus Wistar albino (rat) small intestine at 74 MBq/umol, iv after 60 min; format: ADME, organism-based; conditions: in vivo, 1 h
Large intestine [8] = assay: Biodistribution in Rattus norvegicus Wistar albino (rat) large intestine at 74 MBq/umol, iv after 60 min; format: ADME, organism-based; conditions: in vivo, 1 h
Liver [9] = assay: Biodistribution in Rattus norvegicus Wistar albino (rat) liver at 74 MBq/umol, iv after 60 min; format: ADME, organism-based; conditions: in vivo, 1 h
Kidney [10] = assay: Biodistribution in Rattus norvegicus Wistar albino (rat) kidney at 74 MBq/umol, iv measured at 60 min; format: ADME, organism-based; conditions: in vivo, 1 h
Stomach [11] = assay: Biodistribution in Rattus norvegicus Wistar albino (rat) stomach at 74 MBq/umol, iv measured at 60 min; format: ADME, organism-based; conditions: in vivo, 1 h
Large intestine [12] = assay: Biodistribution in Rattus norvegicus Wistar albino (rat) large intestine at 74 MBq/umol, iv measured at 60 min; format: ADME, organism-based; conditions: in vivo, 1 h
Small intestine [13] = assay: Biodistribution in Rattus norvegicus Wistar albino (rat) small intestine at 74 MBq/umol, iv measured at 60 min; format: ADME, organism-based; conditions: in vivo, 1 h
Liver [14] = assay: Biodistribution in Rattus norvegicus Wistar albino (rat) liver at 74 MBq/umol, iv measured at 60 min; format: ADME, organism-based; conditions: in vivo, 1 h
Pancreas = assay: Biodistribution in Rattus norvegicus Wistar albino (rat) pancreas at 74 MBq/umol, iv measured at 30 min; format: ADME, organism-based; conditions: in vivo, 0.5 h
Lung [15] = assay: Biodistribution in Rattus norvegicus Wistar albino (rat) lung at 74 MBq/umol, iv measured at 30 min; format: ADME, organism-based; conditions: in vivo, 0.5 h
[16] = Octanol-water partition coefficient of the compound; format: physicochemical; conditions: read-out: log KOW
[17] = Metabolic stability in Homo sapiens (human) serum at 24 hr; format: ADME; conditions: read-out: Stability
[18] = Metabolic stability in Homo sapiens (human) serum at 4 hr; format: ADME; conditions: read-out: Stability
[19] = Metabolic stability in Homo sapiens (human) serum at 3 hr; format: ADME; conditions: read-out: Stability
[20] = Metabolic stability in Homo sapiens (human) serum at 2 hr; format: ADME; conditions: read-out: Stability
Rattus norvegicus = assay: Ratio of drug uptake in Rattus norvegicus Wistar albino (rat) lung to muscle at 74 MBq/umol, iv measured at 30 min; conditions: in vivo, 0.5 h

Drug uptake (Lung [1]): 0.22 % ID/g | tissue uptake at 1 h [2]: 0.23 %ID/g | tissue uptake at 0.5 h [3]: 0.25 %ID/g | Kp at 0.5 h [4]: 0.96 | Drug uptake (Kidney [5]): Not Active | Drug uptake (Stomach [6]): Not Active | Drug uptake (Small intestine [7]): Not Active | Drug uptake (Large intestine [8]): Not Active | Drug uptake (Liver [9]): Not Active | Drug uptake (Kidney [10]): 0.37 % ID/g | Drug uptake (Stomach [11]): 2.76 % ID/g | Drug uptake (Large intestine [12]): 1.04 % ID/g | Drug uptake (Small intestine [13]): 0.71 % ID/g | Drug uptake (Liver [14]): 0.23 % ID/g | Drug uptake (Pancreas): 0.32 % ID/g | Drug uptake (Lung [15]): 0.45 % ID/g | logP [16]: 1.46 | remaining at 24 h [17]: 83% | remaining at 4 h [18]: 84% | remaining at 3 h [19]: 86% | remaining at 2 h [20]: 87% | Ratio (Rattus norvegicus): 2.69
Compound: O=C(O[C@@H]1Cc2c(cc(O)c([131I])c2O)O[C@@H]1c1cc(O)c(O)c(O)c1)c1cc(O)c(O)c(O)c1 [[131I]-EPIGALLOCATECHIN GALLATE]

From ChEMBL document CHEMBL3044537, “Radiolabeling of EGCG with 131I and biodistribution in rats” (Med Chem Res, 2012)
